From patent publication US20130079402A1, “Use of at Least One Dialkyl Thiosulfonate or Thiosulfinate for Reducing the Number of Apicomplexa in an Animal” (Pancosma S.A., priority 2010, published 2013)
Read-outs that look alike come from different tables or passages of the source.

Tested on: sporozoites of Eimeria tenella
Assay: Viability of Eimeria tenella sporozoites after 24 hours incubation with test compound (trypan blue exclusion)
Type: cell-based
Settings: for percentage inhibition (effectiveness): concentration of 10 ppm; for inhibition at 100 ppm: Eimeria tenella, read-out: percentage inhibition (inhibitory or destructive effect on the sporozoites)
Method: The antiparasitic properties of the following compounds were tested: • a capsicum oleoresin (Capsicum frutescens pigment) containing 6% by weight of a mixture of capsaicin and dihydrocapsaicin; • carvacrol; • cinnamaldehyde; • curcumin; • anethole; • PTS (according to the invention); • PTSO (according to the invention); and • an extract (according to the invention) called “Garlicon 40” containing […] of organosulfur compounds characteristic of garlic/onion, 6.7% by weight of PTS and 34.3% by weight of PTSO.
A first series of samples consisting of an aqueous solution containing 100 ppm of the abovementioned test compounds, and a second series of samples containing only 10 ppm of these compounds, were prepared.
Next, in order to be able to test the effect of the abovementioned compounds on Eimeria, the following was carried out. Freshly sporulated oocysts were obtained from Eimeria tenella and were stored at 4° C. in a 2.5% (weight/volume) potassium dichromate solution until use.
The oocysts were then sterilized with bleach before isolating sporozoites. The walls of the oocysts were mechanically destroyed for 5 to 7 seconds using a ball mill having balls of 0.5 mm.
The product obtained was then incubated for 45 minutes at 41° C. in a PBS buffer solution containing 0.014 mol/l of taurodeoxycholic acid and 0.25% by weight of trypsin in order to release the sporozoites.
The fluids released by the excystation were filtered and the sporozoites collected were washed three times with RPMI-1640 medium with stirring at 2100 revolutions per minute for 10 minutes at 4° C.
Solutions of 10^6 sporozoites per milliliter were then prepared, and were left to incubate with the same volume of sample of test compound for 24 hours.
The viability of the sporozoites was then measured according to the trypan blue exclusion method.
The results can be seen on the appended single figure, in which the numbers located above each column indicate the percentage inhibition by the corresponding compound and the numbers which follow the name of the compound indicate its concentration.
A measurement was also carried out with a control solution (free of test compound) called “Control” on the figure.

[1] = concentration of 100 ppm, 24 hours incubation

Compound | percentage inhibition (effectiveness) (24 hours incubation) | inhibition at 100 ppm [1] | also measured
CCCS[S+]([O-])CCC (stereo not drawn) [PTS, di(n-propyl) thiosulfinate] | 87% |  | 
CCCSS(=O)(=O)CCC [PTSO, di(n-propyl) thiosulfonate] | 61% |  | effectiveness at 10 ppm compared with 100 ppm (10 ppm versus 100 ppm): higher effectiveness at 10 ppm than at 100 ppm
Cc1ccc(C(C)C)cc1O [carvacrol] |  |  | inhibition at 100 ppm (24 h): ≥ 74%
O=CC=Cc1ccccc1 [cinnamaldehyde] |  | ≥ 74% | 
COc1cc(/C=C/C(=O)CC(=O)/C=C/c2ccc(O)c(OC)c2)ccc1O [curcumin] |  | ≥ 74% | 
